Measurements published in patent US20070286886A1, “Materials And Methods For Inducing Apoptosis In Adipocytes” (University of Tennessee Research Foundation, priority 2004, published 2007).
“Also recorded” adds a separate entry of the source.

Experiments:
[1] = system: caspase-1; assay: Caspase-1 mRNA expression by real-time PCR in 3T3-L1 and UCP2-transfected 3T3-L1 adipocytes; type: cell-based; conditions: 24 h, control and UCP2-transfected 3T3-L1 cells
Experimental: (§1) 3T3-L1 preadipocytes were incubated at a density of 8000 cells/cm2 (10 cm2 dish) and grown in Dulbecco's modified Eagle's medium (DMEM) containing 10% FBS and antibiotics (adipocyte medium) at 37° C. in 5% CO2 in air. Confluent preadipocytes were induced to differentiate with a standard differentiation medium consisting of DMEM-F10 (1:1, vol/vol) medium supplemented with 1% FBS, 1 μM dexamethasone, IBMX (0.5 mM), and antibiotics (1% penicillin-streptomycin). Preadipocytes were maintained in this differentiation medium for 3 days and subsequently cultured in adipocyte medium. Cultures were re-fed every 2-3 days to allow 90% cells to reach full differentiation before they were chemically treated. Chemicals were freshly diluted in adipocyte medium before treatment. Cells were washed with fresh adipocyte medium, re-fed with medium containing the different treatments, and incubated at 37° C. in 5% CO2 in air before analysis. Cell viability was measured via trypan blue exclusion.
(§2) UCP2 full-length cDNAs were amplified by […] using mRNAs isolated from mouse white adipose tissues. The PCR primers for this amplification are shown as follows: UCP2 forward, 5′-[…]-3′, reverse, 5′-[…]-3′. The PCR products were then subcloned into pcDNA4/His expression vectors. The linearized constructs were transfected into 3T3-L1 preadipocytes using lipofectamine plus standard protocol (Invitrogen, Carlsbad, Calif.). After 48 h of transfection, cells were split and cultured in selective medium containing 400 ug/ml zeocin for the selection of resistant colonies. […]
(§3) Adipocyte caspase-1, caspase-3, Bcl-2, and Bax mRNA were quantitatively measured using a Smart Cycler Real Time PCR System (Cepheid, Sunnyvale, Calif.) with a TaqMan 1000 Core Reagent Kit (Applied Biosystems, Branchburg, N.J.). […] Reactions of quantitative RT-PCR for standards and unknown samples were Cepheid, Sunnyvale, Calif.) and TaqMan Real Time PCR Core Kit. The mRNA quantitation for each sample was further normalized using the corresponding 18 s quantitation, with a forward primer, 5′-[…]-3′, and a reverse primer, 5′-[…]-3′.

[2] = system: Bcl-2/Bax; assay: Bcl-2/Bax expression ratio by real-time PCR in 3T3-L1 and UCP2-transfected 3T3-L1 adipocytes; type: cell-based; conditions: 24 h, P<0.01
Experimental: as §1, §2, §3

[3] = system: 3T3-L1 and UCP2-transfected 3T3-L1 cells; assay: ATP production (microplate luminometer) in adipocytes; type: cell-based; conditions: 4 h
Experimental: Adipocytes were incubated with adipocyte medium for 4 h with or without 1α,25-(OH)2-D3. ATP levels were measured using ENLITEN Total ATP Rapid Biocontamination Detection Kit (Promega, Madison, […].) according to the manufacturer's instructions. Cellular ATP was extracted as described previously and measured using a microplate luminometer (Labsystem, Helsinki, Finland). The integration time of the luminometer was set at 1 s with normal gain. Measurement of cytosolic Ca^2+ ([Ca^2+]c) and mitochondrial calcium([Ca^2+]m)

[4] = system: 3T3-L1 and UCP2-transfected 3T3-L1 adipocytes; assay: Cytosolic/intracellular calcium (fura-2 dual-wavelength fluorescence imaging) in adipocytes; type: cell-based
[5] = system: 3T3-L1 and L1-UCP2 cells; assay: Adipocyte apoptosis in 3T3-L1 and L1-UCP2 cells; type: cell-based
Experimental: as §1, with “Cells were washed with fresh adipocyte medium, re-fed with medium containing the different treatments, and incubated at 37° C. in 5% CO2 in air before analysis.” left out, “exclusion. […]” for “exclusion.”
as §3

[6] = system: UCP2; assay: UCP2 expression in 3T3-L1 cells (western blot, UCP2/actin); type: cell-based, mouse; conditions: 3T3-L1 cells, BK8644
Experimental: Duplex siRNA corresponding to UCP2 gene was designed and chemically synthesized by Invitrogen. The following gene-specific sequences were used successfully: Si-UCP2 sense 5′-GCCUCUACGACUCUGUCAA-3′ and antisense […]. Transfection of siRNA was performed with Oligofectamine™ reagent (Invitrogen Life Technologies, CA) in 6-well plates. Briefly, Oligofectamine diluted in DMEM was applied to the duplex siRNA mixture, and the formulation was continued for 20 min to allow the Oligofectamine-oligonucleotide complex to form. Per well, 800 μl of plating medium and 10 ul of 20 μM duplex siRNA duplex siRNA formulated with 4 μl of Oligofectamine were applied in a final volume of 1 ml. Cells were then incubated at […] in a CO2 incubator for 4 hrs. […]
Adipocytes were harvested and sonicated in a homogenization buffer containing 50 mM Tris-HCl (PH 7.4), 250 mM sucrose, 1 mM EDTA, 1 mM dithiothreitol, 1% (v/v) Triton X, 10% protease cocktail (Sigma). […] Homogenate intrafranatant protein from equal numbers of cells (determined via protein quantitation using Bradford method as described previously) was boiled in Laemmli sample buffer and subject to 10% SDS-polyacrylamide gel electrophoresis (PAGE). […] Visualization was detected with chemiluminescence reagent, using the Western Blotting Luminal Reagent (Santa Cruz Biotechnology, CA).

| Compound | caspase-1 expression ([1]; high dose 100 nM, P<0.01) | caspase-1 expression ([1]; physiological low doses 0.1 nM, 1 nM, 5 nM, 10 nM, P<0.05) | Bcl-2/Bax expression ratio ([2]; high dose 100 nM, control and UCP2-transfected 3T3-L1 cells) | Bcl-2/Bax expression ratio ([2]; lower levels (0.1-10 nM)) | ATP production ([3]; high dose (100 nM), P<0.05) | ATP production ([3]; low dose, P<0.01) | cytosolic calcium levels ([4]; 1 nM, 5 nM, 10 nM, 100 nM, control and UCP2-transfected cells) | increase in calcium influx, high dose relative to the lower doses ([4]; high dose (100 nM) vs lower doses) [fold] | apoptosis ([5]; high dose (100 nM), 3T3-L1 and L1-UCP2 cells, P<0.05) | UCP2 overexpression-induced apoptosis ([5]; physiological doses (0.1-10 nM), L1-UCP2 cells, P<0.01) | adipocyte Ca2+ influx / [Ca2+]i ([4]; 1 nM-100 nM, 3T3-L1 cells) | increases in [Ca2+]i ([4]; 3T3-L1 cells) | effect on UCP2 expression [6] |
| --- | --- | --- | --- | --- | --- | --- | --- | --- | --- | --- | --- | --- | --- |
| C=C1/C(=C\C=C2/CCC[C@]3(C)[C@@H]([C@H](C)CCCC(C)(C)O)CC[C@@H]23)C[C@@H](O)C[C@@H]1O [1α,25-(OH)2-D3, 1α,25-dihydroxyvitamin D3] | stimulated | inhibited | significant decrease | dose-dependent increase | inhibited | markedly increased | dose-dependent increase; also recorded: dose-dependently | 10 | stimulated | protected | – | – | – |
| COC(=O)C1=C(C)NC(C)=C([N+](=O)[O-])C1c1ccccc1C(F)(F)F (stereo not shown) [Bay K 8644] | – | – | – | – | – | – | – | – | – | – | dose-dependent | 3-4 fold | no effect |
